# PubChem BioAssay AID1259407 (Chemical Carcinogenesis Research Information System (CCRIS), 2018)
# The source made the active and inactive calls. How the calls were made is not given here.
# Tested on: CCRIS mutagenicity, Ames/micronucleus/aberration tests
# Assay: CCRIS mutagenicity studies
# [1] = Test System: AMES SALMONELLA TYPHIMURIUM, Strain/Indicator: TA100, Metabolic Activation: RAT, LIVER, S-9, PHENOBARBITAL, Method: STANDARD PLATE
# [2] = Test System: AMES SALMONELLA TYPHIMURIUM, Strain/Indicator: TA98, Metabolic Activation: NONE, Method: PREINCUBATION
# [3] = Test System: AMES SALMONELLA TYPHIMURIUM, Strain/Indicator: TA100, Metabolic Activation: NONE, Method: PREINCUBATION
# [4] = Test System: AMES SALMONELLA TYPHIMURIUM, Strain/Indicator: TA100, Metabolic Activation: NONE, Method: STANDARD PLATE
# [5] = Test System: AMES SALMONELLA TYPHIMURIUM, Strain/Indicator: TA100, Metabolic Activation: RAT, LIVER, S-9, AROCLOR 1254, Method: STANDARD PLATE
# [6] = Test System: AMES SALMONELLA TYPHIMURIUM, Strain/Indicator: TA98, Metabolic Activation: NONE, Method: STANDARD PLATE
# [7] = Test System: AMES SALMONELLA TYPHIMURIUM, Strain/Indicator: TA98, Metabolic Activation: RAT, LIVER, S-9, AROCLOR 1254, Method: STANDARD PLATE
# [8] = Test System: AMES SALMONELLA TYPHIMURIUM, Strain/Indicator: TA1535, Metabolic Activation: NONE, Method: STANDARD PLATE
# [9] = Test System: AMES SALMONELLA TYPHIMURIUM, Strain/Indicator: TA1535, Metabolic Activation: RAT, LIVER, S-9, AROCLOR 1254, Method: STANDARD PLATE
compound,measurement,setting,value
C[n+]1cccc(-c2ccc[n+](C)c2)c1,mutagenic call,"Test System: AMES SALMONELLA TYPHIMURIUM, Strain/Indicator: TA97, Metabolic Activation: RAT, LIVER, S-9, PHENOBARBITAL, Method: STANDARD PLATE",inactive; negative
same,mutagenic call,"Test System: AMES SALMONELLA TYPHIMURIUM, Strain/Indicator: TA98, Metabolic Activation: RAT, LIVER, S-9, PHENOBARBITAL, Method: STANDARD PLATE",inactive; negative
same,mutagenic call,[1],active; positive
same,mutagenic call,"Test System: AMES SALMONELLA TYPHIMURIUM, Strain/Indicator: TA1535, Metabolic Activation: RAT, LIVER, S-9, PHENOBARBITAL, Method: STANDARD PLATE",inactive; negative
same,mutagenic call,"Test System: AMES SALMONELLA TYPHIMURIUM, Strain/Indicator: TA1537, Metabolic Activation: RAT, LIVER, S-9, PHENOBARBITAL, Method: STANDARD PLATE",inactive; negative
same,mutagenic call,"Test System: AMES SALMONELLA TYPHIMURIUM, Strain/Indicator: TA1538, Metabolic Activation: RAT, LIVER, S-9, PHENOBARBITAL, Method: STANDARD PLATE",inactive; negative
Cc1c([N+](=O)[O-])c2ccccc2c2ccc3ccccc3c12,mutagenic call,[2],inactive; negative
same,mutagenic call,"Test System: AMES SALMONELLA TYPHIMURIUM, Strain/Indicator: TA98, Metabolic Activation: RAT, LIVER, S-9, Method: PREINCUBATION",active; positive
same,mutagenic call,[3],inactive; negative
same,mutagenic call,[4],inactive; negative
same,mutagenic call,[5],active; positive
same,mutagenic call,"Test System: AMES SALMONELLA TYPHIMURIUM, Strain/Indicator: TA100, Metabolic Activation: RAT, LIVER, S-9, Method: PREINCUBATION",active; positive
CCOC(=O)NNc1nncc2ccccc12,mutagenic call,[6],inactive; negative
same,mutagenic call,[7],inactive; negative
same,mutagenic call,[5],inactive; negative
same,mutagenic call,[1],active; positive
same,mutagenic call,[8],inactive; negative
same,mutagenic call,[9],inactive; negative
same,mutagenic call,"Test System: AMES SALMONELLA TYPHIMURIUM, Strain/Indicator: TA1537, Metabolic Activation: NONE, Method: STANDARD PLATE",inactive; negative
same,mutagenic call,"Test System: AMES SALMONELLA TYPHIMURIUM, Strain/Indicator: TA1537, Metabolic Activation: RAT, LIVER, S-9, AROCLOR 1254, Method: STANDARD PLATE",inactive; negative
same,mutagenic call,"Test System: AMES SALMONELLA TYPHIMURIUM, Strain/Indicator: TA1538, Metabolic Activation: NONE, Method: STANDARD PLATE",inactive; negative
same,mutagenic call,"Test System: AMES SALMONELLA TYPHIMURIUM, Strain/Indicator: TA1538, Metabolic Activation: RAT, LIVER, S-9, AROCLOR 1254, Method: STANDARD PLATE",inactive; negative
same,mutagenic call,"Test System: UDS RAT HEPATOCYTES, Strain/Indicator: THY INCORP, Metabolic Activation: NONE, Method: AUTORADIOGRAPHY",inactive; negative
CC(C)(Cl)Cl,mutagenic call,"Test System: AMES SALMONELLA TYPHIMURIUM, Strain/Indicator: GSTT1, Metabolic Activation: RAT, LIVER, S-9, AROCLOR 1254, Method: STANDARD PLATE",inactive; negative
same,mutagenic call,"Test System: AMES SALMONELLA TYPHIMURIUM, Strain/Indicator: RSJ100, Metabolic Activation: NONE, Method: STANDARD PLATE",inactive; negative
same,mutagenic call,[6],inactive; negative
same,mutagenic call,[7],inactive; negative
same,mutagenic call,[4],inactive; negative
same,mutagenic call,[5],inactive; negative
same,mutagenic call,"Test System: AMES SALMONELLA TYPHIMURIUM, Strain/Indicator: TA104, Metabolic Activation: NONE, Method: STANDARD PLATE",inactive; negative
same,mutagenic call,"Test System: AMES SALMONELLA TYPHIMURIUM, Strain/Indicator: TA104, Metabolic Activation: RAT, LIVER, S-9, AROCLOR 1254, Method: STANDARD PLATE",inactive; negative
same,mutagenic call,[8],inactive; negative
same,mutagenic call,[9],inactive; negative
NC(=O)OC1CO1 (stereo not given),mutagenic call,"Test System: AMES SALMONELLA TYPHIMURIUM, Strain/Indicator: TA1535, Metabolic Activation: RAT, LIVER, MICROSOMES, Method: STANDARD PLATE",active; positive
Clc1ccccc1-c1nc2ccccc2o1,mutagenic call,[6],inactive; negative
same,mutagenic call,"Test System: AMES SALMONELLA TYPHIMURIUM, Strain/Indicator: TA98, Metabolic Activation: S-9, Method: STANDARD PLATE",inactive; negative
C/C(C=O)=C\c1ccccc1,mutagenic call,"Test System: AMES SALMONELLA TYPHIMURIUM, Strain/Indicator: TA98, Metabolic Activation: HAMSTER, LIVER, S-9, AROCLOR 1254 (10%), Method: PREINCUBATION",inactive; negative
same,mutagenic call,[2],inactive; negative
same,mutagenic call,"Test System: AMES SALMONELLA TYPHIMURIUM, Strain/Indicator: TA98, Metabolic Activation: RAT, LIVER, S-9, AROCLOR 1254 (10%), Method: PREINCUBATION",inactive; negative
same,mutagenic call,"Test System: AMES SALMONELLA TYPHIMURIUM, Strain/Indicator: TA100, Metabolic Activation: HAMSTER, LIVER, S-9, AROCLOR 1254 (10%), Method: PREINCUBATION",inactive; negative
same,mutagenic call,[3],inactive; negative
same,mutagenic call,"Test System: AMES SALMONELLA TYPHIMURIUM, Strain/Indicator: TA100, Metabolic Activation: RAT LIVER S-9, AROCLOR 1254, Method: PREINCUBATION",inactive; negative
same,mutagenic call,"Test System: AMES SALMONELLA TYPHIMURIUM, Strain/Indicator: TA100, Metabolic Activation: RAT, LIVER, S-9, AROCLOR 1254 (10%), Method: PREINCUBATION",inactive; negative
same,mutagenic call,"Test System: AMES SALMONELLA TYPHIMURIUM, Strain/Indicator: TA102, Metabolic Activation: MOUSE LIVER S-9, AROCLOR 1254, Method: PREINCUBATION",inactive; negative
same,mutagenic call,"Test System: AMES SALMONELLA TYPHIMURIUM, Strain/Indicator: TA102, Metabolic Activation: NONE, Method: PREINCUBATION",inactive; negative
same,mutagenic call,"Test System: AMES SALMONELLA TYPHIMURIUM, Strain/Indicator: TA102, Metabolic Activation: RAT LIVER S-9, AROCLOR 1254, Method: PREINCUBATION",inactive; negative
same,mutagenic call,"Test System: AMES SALMONELLA TYPHIMURIUM, Strain/Indicator: TA104, Metabolic Activation: MOUSE LIVER S-9, AROCLOR 1254, Method: PREINCUBATION",inactive; negative
same,mutagenic call,"Test System: AMES SALMONELLA TYPHIMURIUM, Strain/Indicator: TA104, Metabolic Activation: NONE, Method: PREINCUBATION",inactive; negative
same,mutagenic call,"Test System: AMES SALMONELLA TYPHIMURIUM, Strain/Indicator: TA104, Metabolic Activation: RAT LIVER S-9, AROCLOR 1254, Method: PREINCUBATION",inactive; negative
same,mutagenic call,"Test System: AMES SALMONELLA TYPHIMURIUM, Strain/Indicator: TA1535, Metabolic Activation: HAMSTER, LIVER, S-9, AROCLOR 1254 (10%), Method: PREINCUBATION",inactive; negative
same,mutagenic call,"Test System: AMES SALMONELLA TYPHIMURIUM, Strain/Indicator: TA1535, Metabolic Activation: NONE, Method: PREINCUBATION",inactive; negative
same,mutagenic call,"Test System: AMES SALMONELLA TYPHIMURIUM, Strain/Indicator: TA1535, Metabolic Activation: RAT, LIVER, S-9, AROCLOR 1254 (10%), Method: PREINCUBATION",inactive; negative
same,mutagenic call,"Test System: AMES SALMONELLA TYPHIMURIUM, Strain/Indicator: TA1537, Metabolic Activation: HAMSTER, LIVER, S-9, AROCLOR 1254 (10%), Method: PREINCUBATION",inactive; negative
same,mutagenic call,"Test System: AMES SALMONELLA TYPHIMURIUM, Strain/Indicator: TA1537, Metabolic Activation: NONE, Method: PREINCUBATION",inactive; negative
same,mutagenic call,"Test System: AMES SALMONELLA TYPHIMURIUM, Strain/Indicator: TA1537, Metabolic Activation: RAT, LIVER, S-9, AROCLOR 1254 (10%), Method: PREINCUBATION",inactive; negative
